Assay results: publication PMC7926793, “Synthesis and Biological Evaluation of 1-(Diarylmethyl)-1H-1,2,4-triazoles and 1-(Diarylmethyl)-1H-imidazoles as a Novel Class of Anti-Mitotic Agent for Activity in Breast Cancer” (Pharmaceuticals, 2021)

Experiments:
Assay type in all cases: cell-based, human
[1] = tested on: OVCAR-3; assay: NCI 60 cell line screen (Ovarian Cancer); settings: for GI50: Homo sapiens, OVCAR-3, NCI 5 dose assay; for Growth percentage: OVCAR-3, single dose 10 µM
[2] = tested on: SF-268; assay: NCI 60 cell line screen (CNS Cancer); settings: for GI50: Homo sapiens, SF-268, NCI 5 dose assay; for Growth percentage: SF-268, single dose 10 µM
[3] = tested on: DU-145; assay: NCI 60 cell line screen (Prostate cancer); settings: for Growth percentage: DU-145, single dose 10 µM; for GI50: Homo sapiens, DU-145, NCI 5 dose assay
[4] = tested on: MDA-MB-231/ATCC; assay: NCI 60 cell line screen (Breast Cancer); settings: for GI50: Homo sapiens, NCI 5 dose assay; for Growth percentage: single dose 10 µM
[5] = tested on: OVCAR-4; assay: NCI 60 cell line screen (Ovarian Cancer); settings: for GI50: Homo sapiens, OVCAR-4, NCI 5 dose assay; for Growth percentage: OVCAR-4, single dose 10 µM
[6] = tested on: NCI/ADR-RES; assay: NCI 60 cell line screen (Ovarian Cancer); settings: for GI50: Homo sapiens, NCI 5 dose assay; for Growth percentage: single dose 10 µM
[7] = tested on: UACC-62; assay: NCI 60 cell line screen (Melanoma); settings: for GI50: Homo sapiens, UACC-62, NCI 5 dose assay; for Growth percentage: UACC-62, single dose 10 µM
[8] = tested on: NCI-H460; assay: NCI 60 cell line screen (Non-Small Cell Lung Cancer); settings: for GI50: Homo sapiens, NCI-H460, NCI 5 dose assay; for Growth percentage: NCI-H460, single dose 10 µM
[9] = tested on: KM12; assay: NCI 60 cell line screen (Colon Cancer); settings: for GI50: Homo sapiens, KM12, NCI 5 dose assay; for Growth percentage: KM12, single dose 10 µM
[10] = tested on: HCT-116; assay: NCI 60 cell line screen (Colon Cancer); settings: for Growth percentage: HCT-116, single dose 10 µM; for GI50: Homo sapiens, HCT-116, NCI 5 dose assay
[11] = tested on: HOP-62; assay: NCI 60 cell line screen (Non-Small Cell Lung Cancer); settings: for Growth percentage: HOP-62, single dose 10 µM; for GI50: Homo sapiens, HOP-62, NCI 5 dose assay
[12] = tested on: SNB-19; assay: NCI 60 cell line screen (CNS Cancer); settings: for GI50: Homo sapiens, SNB-19, NCI 5 dose assay; for Growth percentage: SNB-19, single dose 10 µM
[13] = tested on: SNB-75; assay: NCI 60 cell line screen (CNS Cancer); settings: for Growth percentage: SNB-75, single dose 10 µM
[14] = tested on: NCI-H552; assay: NCI 60 cell line screen (Non-Small Cell Lung Cancer); settings: for GI50: Homo sapiens, 60 cell, NCI-H552, NCI 5 dose assay; for Growth percentage: NCI-H552, single dose 10 µM
[15] = tested on: IGROV1; assay: NCI 60 cell line screen (Ovarian Cancer); settings: for GI50: Homo sapiens, IGROV-1, IGROV1, NCI 5 dose assay; for Growth percentage: IGROV1, single dose 10 µM
[16] = tested on: MDA-MB-435; assay: NCI 60 cell line screen (Melanoma); settings: for GI50: Homo sapiens, MDA-MB-435, NCI 5 dose assay; for Growth percentage: MDA-MB-435, single dose 10 µM
[17] = tested on: HOP-92; assay: NCI 60 cell line screen (Non-Small Cell Lung Cancer); settings: for Growth percentage: HOP-92, single dose 10 µM; for GI50: Homo sapiens, HOP-92, NCI 5 dose assay
[18] = tested on: RXF 393; assay: NCI 60 cell line screen (Renal Cancer); settings: for Growth percentage: RXF 393, single dose 10 µM
[19] = tested on: SF295; assay: NCI 60 cell line screen (CNS Cancer); settings: for GI50: Homo sapiens, SF-295, SF295, NCI 5 dose assay; for Growth percentage: SF295, single dose 10 µM
[20] = tested on: ACHN; assay: NCI 60 cell line screen (Renal Cancer); settings: for GI50: Homo sapiens, NCI 5 dose assay; for Growth percentage: single dose 10 µM
[21] = tested on: MOLT-4; assay: NCI 60 cell line screen (Leukemia); settings: for GI50: Homo sapiens, MOLT-4, NCI 5 dose assay; for Growth percentage: MOLT-4, single dose 10 µM
[22] = tested on: MDA-MB-468; assay: NCI 60 cell line screen (Breast Cancer); settings: for GI50: Homo sapiens, MDA-MB-468, NCI 5 dose assay; for Growth percentage: MDA-MB-468, single dose 10 µM
[23] = tested on: HS 578T; assay: NCI 60 cell line screen (Breast Cancer); settings: for GI50: Homo sapiens, NCI 5 dose assay; for Growth percentage: single dose 10 µM
[24] = tested on: NCI-H226; assay: NCI 60 cell line screen (Non-Small Cell Lung Cancer); settings: for GI50: Homo sapiens, NCI-H226, NCI 5 dose assay; for Growth percentage: NCI-H226, single dose 10 µM
[25] = tested on: HCT-2998; assay: NCI 60 cell line screen (Colon Cancer); settings: for Growth percentage: HCT-2998, single dose 10 µM; for GI50: Homo sapiens, 60 cell, HCT-2998, NCI 5 dose assay
[26] = tested on: SK-MEL-28; assay: NCI 60 cell line screen (Melanoma); settings: SK-MEL-28, single dose 10 µM
[27] = tested on: 786-0; assay: NCI 60 cell line screen (Renal Cancer); settings: for Growth percentage: 786-0, single dose 10 µM; for GI50: Homo sapiens, 786-0, NCI 5 dose assay
[28] = tested on: CCRF-CEM; assay: NCI 60 cell line screen (Leukemia); settings: for GI50: Homo sapiens, NCI 5 dose assay; for Growth percentage: single dose 10 µM
[29] = tested on: MALME-3M; assay: NCI 60 cell line screen (Melanoma); settings: single dose 10 µM
[30] = tested on: NCI-H332M; assay: NCI 60 cell line screen (Non-Small Cell Lung Cancer); settings: for GI50: Homo sapiens, NCI 5 dose assay; for Growth percentage: single dose 10 µM
[31] = tested on: SK-OV-3; assay: NCI 60 cell line screen (Ovarian Cancer); settings: for GI50: Homo sapiens, SK-OV-3, NCI 5 dose assay; for Growth percentage: SK-OV-3, single dose 10 µM
[32] = tested on: UACC-257; assay: NCI 60 cell line screen (Melanoma); settings: for GI50: Homo sapiens, UACC-257, NCI 5 dose assay; for Growth percentage: UACC-257, single dose 10 µM
[33] = tested on: HL-60 (TB); assay: NCI 60 cell line screen (Leukemia); settings: for GI50: Homo sapiens, NCI 5 dose assay; for Growth percentage: single dose 10 µM

COc1ccc(C(c2cc(OC)c(OC)c(OC)c2)n2cncn2)cc1O (stereo not drawn) [19e, 5-((1H-1,2,4-Triazol-1-yl)(3,4,5-Trimethoxyphenyl)methyl)-2-Methoxyphenol]
GI50 [1]: 323 nM
Growth percentage [1]: 1.74%
GI50 [2]: 469 nM
Growth percentage [2]: 48.75%
Growth percentage [3]: 19.64%
GI50 [3]: 530 nM
GI50 [4]: 1500 nM
Growth percentage [4]: 43.15%
GI50 [5]: 3020 nM
Growth percentage [5]: 72.08%
GI50 [6]: 1180 nM
Growth percentage [6]: 1.80%
GI50 [7]: 550 nM
Growth percentage [7]: 32.04%
GI50 [8]: 414 nM
Growth percentage [8]: 9.82%
GI50 [9]: 418 nM
Growth percentage [9]: 21.79%
Growth percentage [10]: 7.25%
GI50 [10]: 448 nM
Growth percentage [11]: 32.17%
GI50 [11]: 514 nM
GI50 [12]: 578 nM
Growth percentage [12]: 33.31%
Growth percentage [13]: 48.64%
GI50 [14]: 395 nM
Growth percentage [14]: 12.78%
GI50 [15]: 959 nM
Growth percentage [15]: 49.22%
GI50 [16]: 181 nM
Growth percentage [16]: -46.16%
Growth percentage [17]: 43.92%
GI50 [17]: 9690 nM
GI50 ([18]; Homo sapiens, RXF 393, NCI 5 dose assay): 321 nM
Growth percentage [18]: -13.85%
GI50 [19]: 325 nM
Growth percentage [19]: 2.56%
GI50 [20]: 653 nM
Growth percentage [20]: 52.36%
GI50 [21]: 510 nM
Growth percentage [21]: 16.7%
GI50 [22]: 371 nM
Growth percentage [22]: 7.88%
GI50 [23]: 548 nM
Growth percentage [23]: 31.34%
GI50 [24]: 1430 nM
Growth percentage [24]: 73.39%
Growth percentage [25]: 25.25%
GI50 [25]: 1350 nM
Growth percentage [26]: 57.04%
Growth percentage [27]: 28.10%
GI50 [27]: 475 nM
GI50 [28]: 402 nM
Growth percentage [28]: 9.32%
Growth percentage [29]: 70.24%
GI50 [30]: 696 nM
Growth percentage [30]: 51.45%
GI50 [31]: 402 nM
Growth percentage [31]: 20.25%
GI50 [32]: > 100000 nM
Growth percentage [32]: 44.45%
GI50 [33]: 261 nM
Growth percentage [33]: -32.53%

COc1ccc(C(c2cc(OC)c(OC)c(OC)c2)n2ccnc2)cc1O (stereo not drawn) [21l, 5-((1H-Imidazol-1-yl)(3,4,5-Trimethoxyphenyl)Methyl)-2-Methoxyphenol]
GI50 [1]: 264 nM
Growth percentage [1]: -9.52%
GI50 [2]: 731 nM
Growth percentage [2]: 39.64%
Growth percentage [3]: 12.91%
GI50 [3]: 407 nM
GI50 [4]: 664 nM
Growth percentage [4]: 34.75%
GI50 [5]: 3440 nM
Growth percentage [5]: 73.56%
GI50 [6]: 1920 nM
Growth percentage [6]: 12.06%
GI50 [7]: 668 nM
Growth percentage [7]: 36.48%
GI50 [8]: 377 nM
Growth percentage [8]: 6.11%
GI50 [9]: 389 nM
Growth percentage [9]: 17.05%
Growth percentage [10]: 6.88%
GI50 [10]: 249 nM
Growth percentage [11]: 29.46%
GI50 [11]: 516 nM
GI50 [12]: 532 nM
Growth percentage [12]: 30.51%
GI50 ([13]; Homo sapiens, SNB-75, NCI 5 dose assay): 192 nM
Growth percentage [13]: 56.72%
GI50 [14]: 247 nM
Growth percentage [14]: 12.12%
GI50 [15]: 862 nM
Growth percentage [15]: 36.42%
GI50 [16]: 119 nM
Growth percentage [16]: -29.47%
Growth percentage [17]: 25.77%
GI50 [17]: 28600 nM
Growth percentage [18]: -5.38%
GI50 [19]: 307 nM
Growth percentage [19]: -3.02%
GI50 [20]: 693 nM
Growth percentage [20]: 42.41%
GI50 [21]: 565 nM
Growth percentage [21]: 14.01%
GI50 [22]: 316 nM
Growth percentage [22]: 15.64%
GI50 [23]: 414 nM
Growth percentage [23]: 29.10%
GI50 [24]: 640 nM
Growth percentage [24]: 68.70%
Growth percentage [25]: 24.97%
GI50 [25]: 1720 nM
Growth percentage [26]: 62.95%
Growth percentage [27]: 19.99%
GI50 [27]: 369 nM
GI50 [28]: 289 nM
Growth percentage [28]: 6.97%
Growth percentage [29]: 66.57%
GI50 [30]: 789 nM
Growth percentage [30]: 48.23%
GI50 [31]: 465 nM
Growth percentage [31]: 21.78%
GI50 [32]: 1440 nM
Growth percentage [32]: 37.75%
GI50 [33]: 229 nM
Growth percentage [33]: -35.94%
